US5049372A, “Anticancer activities in a host by increasing blood and plasma adenosine 5'-triphosphate (ATP) levels” (priority 1988, dated 1991)
Structures can show the parent of a compound that is named as a salt.

What was measured:
[1] = ATP levels in mouse blood (total cellular) and plasma after i.p. injection (Table 3); assay type: in vivo; details: CB6F1; for Blood ATP levels: total cellular
Method: The mice are anesthetized with ether during the procedure. The plasma is prepared by immediate centrifugation of the blood in a Beckman microfuge (30 sec at 8000 xg). Blood (20 μl) or plasma (100 μl) aliquots are added to 1 ml of cold 7% trichloroacetic acid. […] The determination of ATP levels in the extracts is performed by bioluminometry (luciferinluciferase) using a Turner Designs Bioluminescence Photometer.

CAPAN-1 xenografts = experiment: Arrest of growth of CAPAN-1 xenografts in athymic nu/nu mice (Table 2); assay type: in vivo, human; details: experiment 5, 10 F, 0.5 × 10^5 cells, 9 weeks, 1 ml of 50 mM i.p.
Method: (§1) The tumor cell lines employed were CT26, a mouse undifferentiated, aggressive colon carcinoma, and CAPAN-1, a well-differentiated human pancreatic adenocarcinoma. […] The cells are shown to be free of Mycoplasma contamination. Cells are cultured at 37° C. in a humidified atmosphere of 5% CO2 /95% air in MEM supplemented with antibiotics (100 units of penicillin per ml and 100 μg streptomycin per ml), L-glutamine (2 mM), non-essential amino acids (0.1 mM), sodium pyruvate (1 mM), and 10% fetal bovine serum.
(§2) In the tests, females and males CB6F1 mice (a standard F1 hybrid of BALB/C and C57BL/6) obtained from Jackson Laboratories, Bar Harbor, Maine and athymic outbred NCr nu/nu mice (males and females) from the Department of Radiation Medicine, Massachusetts General Hospital, Boston, Mass. 02114 are used. All the mice are kept for at least two weeks before inoculation of the tumors and the start of treatment and are 7-9 weeks old (CB6F1) or 6-7 weeks old (athymic nu/nu) at the start of the procedure. Animals weigh 20-25 g (females) or 23-28 g (males), are housed 5-12 per cage, and have ad libitum access to food and water.
(§3) Tumor cells are removed from subconfluent cultures by a mild trypsin-EDTA treatment, the cell pellet is washed once with MEM without serum and the cells are suspended at the desired cell numbers in PBS (phosphate-bufferedsaline, 8 g NaCl, 0.2 g KCl, 1.15 g Na2 HPO4.7H2 O, and 0.2 g KH2 PO4 per liter). Cell suspensions are shown to be at least 90% viable by trypan blue exclusion. Mice are injected subcutaneously in the right hind footpad with tumor cells suspended in 50 μl of PBS. The regular protocol (unless otherwise stated) consists of daily i.p. injections of 1 ml of 0.85% NaCl solution or 1 ml of 50 mM of AMP, ADP, or ATP in 0.85% NaCl (from stock solutions adjusted to pH 6.2) starting one day after tumor inoculation and given for ten consecutive days.
(§4) Injections are administered with 30 gauge needles and the mice are lightly anesthetized with ether. The mice are weighed before the start of treatment and once a week during and after treatment. After the tumors become palpable, tumor sizes are determined every three days. The animals are sacrificed, tumors are excised and weighed before they reach 10% of the animals' weight.
The effects of AMP, ADP, and ATP on human tumor xenografts in nude mice were evaluated utilizing the pancreatic ductal adenocarcinoma CAPAN-1 (see Kyriazis AP, Kyriazis AA, Scarpelli DG, Fogh J, Rao SM, Lepera R., "Human Pancreatic Adenocarcinoma Line CAPAN-1 in Tissue Culture and the Nude Mouse", Am. J. Pathol., 1982, 106, 250-260).
Treatment schedules consist of single daily i.p. injections for 10 consecutive days, starting one day after tumor inoculation. Tumor burden is relatively low (0.5-1×10^5 cells implanted) and tumor growth is slow (tumors became palpable 4-6 weeks after inoculation).

CT26 tumors = experiment: Growth inhibition of s.c. footpad CT26 tumors in CB6F1 mice by daily i.p. adenine nucleotides (Table 1); assay type: in vivo, mouse; details: 0.5 × 10^6 cells, 1 ml of 50 mM i.p. daily
Method: as §1, §2, §3, §4
The growth inhibitory properties of adenine nucleotides against CT26 murine colon carcinoma, which are inoculated s.c. in the hind footpad of CB6F1 mice, are illustrated in Table 1 hereinbelow. […] No significant differences between males and females are observed either in the rate of tumor growth or in the tumor's response to adenine nucleotides treatment.

tumor cells = details: low doses; prior application Ser. No. 397,897; cited from earlier work
[2] = Host toxicity (deaths, body weight) in treated mice; assay type: in vivo, mouse; details: i.p. injections of adenine nucleotides
Method: as §3, §4

tumor-bearing hosts = details: literature; cited from earlier work
[3] = system: blood plasma phosphodiesterase; details: anticoagulant; chelation of divalent cations; cited from earlier work
human subjects = details: single rapid injections of 40 mg, intravenous or intra-arterial; cited from earlier work
[4] = 1 hour after i.p. 1 ml of 50 mM
[5] = 5 hours after i.p. 1 ml of 50 mM
[6] = experiment 3, 12 M per group, day 13
[7] = experiment 4, 11 F per group, day 14

Molecule: Nc1ncnc2c1ncn2[C@@H]1O[C@H](COP(=O)(O)OP(=O)(O)O)[C@@H](O)[C@H]1O [ADP, adenosine 5'-diphosphate]
- Plasma ATP levels [1, 4]: 2.66 ± 0.46 µM
- Blood ATP levels [1, 4]: 1.28 ± 0.30 mM
- Plasma ATP levels [1, 5]: 2.75 ± 0.87 µM
- Blood ATP levels [1, 5]: 1.65 ± 0.41 mM
- Arrested tumors/implanted tumors (CAPAN-1 xenografts): 6/10
- Tumor diameter (CT26 tumors; [6]): 1.3 ± 0.2 cm
- Tumor weight (CT26 tumors; [6]): 0.73 ± 0.23 g
- Tumor diameter (CT26 tumors; [7]): 1.1 ± 0.2 cm
- Tumor weight (CT26 tumors; [7]): 0.86 ± 0.27 g
- Effect on growth of tumor cells in vitro (in words) (tumor cells): marked inhibition of DNA synthesis and arrest of significant populations of cells in the S phase of their cycle
- Deaths [2]: Occasionally, an animal treated with ATP or ADP would die a few hours after injection

Molecule: insulin: the anabolic hormone insulin
- Effect against rapid weight losses in tumor-bearing hosts (tumor-bearing hosts): effective against rapid weight losses in tumor-bearing hosts
- Effect on growth of the tumor itself (tumor-bearing hosts): do not inhibit the growth of the tumor itself

Molecule: O=C(O)CC(O)(CC(=O)O)C(=O)O [Citrate]
- Inhibition of blood plasma phosphodiesterase activity [3]: inhibit the activity of a blood plasma phosphodiesterase

Molecule: Nc1ncnc2c1ncn2[C@@H]1O[C@H](COP(=O)(O)OP(=O)(O)OP(=O)(O)O)[C@@H](O)[C@H]1O [sodium salt of ATP, reference compound]
- Subjective and physiological changes in human subjects (human subjects): small subjective and physiological changes in human subjects
